Results published in ChEMBL document CHEMBL6134865, “Rational Design of Methylene Blue-Raloxifene Conjugates for Efficient Breast Tumor Elimination Triggered by ERα Degradation” (J Med Chem, 2025).
pIC50: −log10 of the molar value. Calls of active or inactive are those of the source. No cut-off for these calls is given here.

Columns and labels:
[1] = Induction of ROS generation in water assessed as decrease in ABDA absorption peak at 5 uM irradiated with 660 nm 0.4 W/cm2 light up to 5 mins by ABDA probe based UV-vis absorption spectra analysis; assay type: functional
[2] = Induction of ROS generation in water at 1 uM irradiated with 660 nm 0.4 W/cm2 light up to 180 sec by DCFH probe based fluorescence spectra analysis; assay type: functional
[3] = Photothermal effect of compound in water assessed as increase in solution temperature at 0.5 to 10 uM in presence of 660 nm 0.4 W/cm2 light irradiation; assay type: functional; conditions: dose 0.5-10 µM, time <= 5.0 min
[4] = Photothermal effect of compound in water assessed as increase in solution temperature measured up to 5 mins in presence of 660 nm 0.4 W/cm2 light irradiation; assay type: functional; conditions: dose 0.5-10 µM
[5] = tested on: MCF7; assay: Induction of ROS generation in human MCF7 cells assessed as cell percentage with elevated ROS at 1 uM incubated for 6 hrs followed by irradiation with 660 nm 0.4 W/cm2 light for 2 min by DCFH-DA probe based flow cytometric analysis (reference value: 0.2 %); assay type: functional; conditions: time 362 min, 6.033 h
[6] = tested on: MCF7; assay: cells; conditions: Homo sapiens, MCF7, 48 h
Description: Antiproliferative activity against human MCF7 cells assessed as inhibition of cell proliferation incubated for 48 hrs by MTT assay

[7] = tested on: MCF7; assay: cells; conditions: Homo sapiens, MCF7, light or radiation study
Description: Antiproliferative activity against human MCF7 cells assessed as inhibition of cell proliferation incubated for 48 hrs with 660 nm 0.4 W/cm2 light irradiation for 1 min at 6th hr of incubation time by MTT assay

[8] = tested on: MCF7; assay: cells; conditions: Homo sapiens, MCF7, light or radiation study; remark: listed apart in the source
Description: Antiproliferative activity against human MCF7 cells assessed as inhibition of cell proliferation incubated for 48 hrs with 660 nm 0.4 W/cm2 light irradiation for 2 min at 6th hr of incubation time by MTT assay

[9] = tested on: MCF7; assay: cells; conditions: Homo sapiens, MCF7, light or radiation study; remark: listed apart in the source
Description: Antiproliferative activity against human MCF7 cells assessed as inhibition of cell proliferation incubated for 48 hrs with 660 nm 0.4 W/cm2 light irradiation for 3 min at 6th hr of incubation time by MTT assay

[10] = tested on: MCF7; assay: cells; conditions: Homo sapiens, MCF7, light or radiation study; remark: listed apart in the source
Description: Antiproliferative activity against human MCF7 cells assessed as inhibition of cell proliferation incubated for 48 hrs with 660 nm 0.4 W/cm2 light irradiation for 4 min at 6th hr of incubation time by MTT assay

[11] = tested on: MCF7; assay: cells; conditions: Homo sapiens, MCF7, light or radiation study; remark: listed apart in the source
Description: Antiproliferative activity against human MCF7 cells assessed as inhibition of cell proliferation incubated for 48 hrs with 660 nm 0.4 W/cm2 light irradiation for 5 min at 6th hr of incubation time by MTT assay

[12] = in vivo; conditions: Sprague-Dawley, rat, iv, 5 mg/kg
Description: Cmax in Sprague-Dawley rat at 5 mg/kg, iv measured after 0.5 to 168 hrs by LC-MS analysis

[13] = in vivo; conditions: Sprague-Dawley, rat, iv, 5 mg/kg; remark: listed apart in the source
Description: AUC (0 to infinity) in Sprague-Dawley rat at 5 mg/kg, iv measured after 0.5 to 168 hrs by LC-MS analysis

[14] = in vivo; conditions: Sprague-Dawley, rat, iv, 5 mg/kg; remark: listed apart in the source
Description: Volume of distribution at steady state in Sprague-Dawley rat at 5 mg/kg, iv measured after 0.5 to 168 hrs by LC-MS analysis

[15] = in vivo; conditions: Sprague-Dawley, rat, po, 15 mg/kg
Description: Tmax in Sprague-Dawley rat at 15 mg/kg, po administered via gavage and measured after 0.5 to 168 hrs by LC-MS analysis

[16] = in vivo; conditions: Sprague-Dawley, rat, po, 15 mg/kg; remark: listed apart in the source
Description: Cmax in Sprague-Dawley rat at 15 mg/kg, po administered via gavage and measured after 0.5 to 168 hrs by LC-MS analysis

[17] = in vivo; conditions: Sprague-Dawley, rat, po, 15 mg/kg; remark: listed apart in the source
Description: AUC (0 to infinity) in Sprague-Dawley rat at 15 mg/kg, po administered via gavage and measured after 0.5 to 168 hrs by LC-MS analysis

[18] = tested on: MCF7; assay: Antitumor activity against human MCF7 cells xenografted in female BALB/c mouse model assessed as tumor growth inhibition at 5 mg/kg, iv measured after 14 days relative to control; assay type: functional; conditions: MCF7, 336 h, time 14 day, read-out: TGI
[19] = Toxicity in female BALB/c mouse xenografted with human MCF7 cells assessed as change in body weight at 5 mg/kg, iv measured after 14 days; assay type: organism-based; conditions: in vivo, 336 h, time 14 day
[20] = Toxicity in female BALB/c mouse xenografted with human MCF7 cells assessed as change in ALT level at 5 mg/kg, iv measured after 14 days; assay type: organism-based; conditions: in vivo, 336 h, time 14 day
[21] = Toxicity in female BALB/c mouse xenografted with human MCF7 cells assessed as change in AST level at 5 mg/kg, iv measured after 14 days; assay type: organism-based; conditions: in vivo, 336 h, time 14 day
[22] = Toxicity in female BALB/c mouse xenografted with human MCF7 cells assessed as change in blood urea nitrogen level at 5 mg/kg, iv measured after 14 days; assay type: organism-based; conditions: in vivo, 336 h, time 14 day
[23] = Toxicity in female BALB/c mouse xenografted with human MCF7 cells assessed as change in creatinine level at 5 mg/kg, iv measured after 14 days; assay type: organism-based; conditions: in vivo, 336 h, time 14 day

Row | pIC50 [6] | pIC50 [7] | pIC50 [8] | pIC50 [9] | pIC50 [10] | pIC50 [11] | SMILES | Activity [1] | Activity [2] | Activity [5] | other results
1 | < 4.00 | 5.26 | 5.41 | 5.75 | 5.87 | 6.20 | CCN(CC)c1ccc2nc3c4ccccc4/c(=N\CCC(=O)NCCCOc4ccc(C(=O)c5c(-c6ccc(O)cc6)sc6cc(O)ccc56)cc4)cc-3sc2c1 | Active | Active | 4.2% | Activity [3]: Time-dependent-effect; Activity [4]: Dose-dependent-effect
2 |  |  |  |  |  |  | CC/C(=C(\c1ccccc1)c1ccc(OCCN(C)C)cc1)c1ccccc1 [TAMOXIFEN] |  |  |  | Cmax [12]: 15.9 ng/mL; AUC(0-inf) [13]: 295 ng·h/mL; Vd [14]: 221 L/kg; Tmax [15]: 16 h; Cmax [16]: 11.7 ng/mL; AUC(0-inf) [17]: 311 ng·h/mL
3 |  |  |  |  |  |  | C[C@]12CC[C@@H]3c4ccc(O)cc4C[C@@H](CCCCCCCCC[S+]([O-])CCCC(F)(F)C(F)(F)F)[C@H]3[C@@H]1CC[C@@H]2O (some centres undefined) [FULVESTRANT] |  |  |  | inhibition in vivo at 5 mg/kg [18]: 95.4%; Activity [19]: Non-toxic; Activity [20]: Non-toxic; Activity [21]: Non-toxic; Activity [22]: Non-toxic; Activity [23]: Non-toxic
4 | < 4.00 | < 4.00 | < 4.00 | 4.85 | 5.17 | 5.26 | CN(C)c1ccc2nc3ccc(N(C)C)cc3[s+]c2c1 [METHYLENE BLUE ANHYDROUS] |  |  |  | 
5 | 5.17 |  |  |  |  |  | O=C(c1ccc(OCCN2CCCCC2)cc1)c1c(-c2ccc(O)cc2)sc2cc(O)ccc12 [RALOXIFENE] |  |  |  | 
6 | < 4.00 | 5.33 | 6.03 | 6.14 | 6.42 | 6.48 | CCN(CC)c1ccc2nc3c4ccccc4/c(=N\CCCCC(=O)NCCCOc4ccc(C(=O)c5c(-c6ccc(O)cc6)sc6cc(O)ccc56)cc4)cc-3sc2c1 | Active | Active | 4.8% | 
